Measured values as given in patent US9051270B2, “Pyridone amides as modulators of sodium channels” (Vertex Pharmaceuticals Incorporated, priority 2013, dated 2015).

How the values were obtained:
human Nav1.8 = human Nav1.8 (Homo sapiens (Human), UniProt Q9Y5Y9); assay: E-VIPR optical membrane potential assay with electrical stimulation; type: cell-based; conditions: HEK cells expressing human Nav1.8
[1] = Microsomal stability assay, human liver microsomes (HLM); type: in vitro ADME; conditions: human liver microsomes 0.5 mg/mL, 1 uM substrate, 2 mM NADPH, 37° C., referenced against time zero control
Procedure: (§1) Microsomal Stability Assay.
(§2) Compounds were incubated at 37° C. and shaken for 30 minutes in a phosphate buffered solution with either rat or human liver microsomes and the cofactor NADPH. A time zero control was similarly prepared, however with NADPH excluded. The final incubation concentrations were 1 uM substrate (0.2% DMSO), 0.5 mg/mL liver microsome, 2 mM NADPH, and 0.1 M phosphate. Reactions were quenched and proteins precipitated with the addition of 2 volume equivalents of ice cold acetonitrile containing an internal standard. Following a centrifugation step, aliquots from the quenched incubations were further diluted with 4 volume equivalents of a 50% aqueous methanol solution and then subjected to LC/MS/MS analysis for quantitation of parent compound. Microsome stability values were calculated as the percent of substrate remaining after 30 minutes referenced against the time zero control.
(§3) Microsomal stability in rat and human liver microsomes were determined for selected compounds of the present invention using the above assay. Table 4 provides the human liver microsomes (“HLM”) and rat liver microsomes (“RLM”) stability data as the percent of compound remaining after 30 minutes referenced against the time zero control.

[2] = Microsomal stability assay, rat liver microsomes (RLM); type: in vitro ADME; conditions: rat liver microsomes 0.5 mg/mL, 1 uM substrate, 2 mM NADPH, 37° C., referenced against time zero control
Procedure: as §1, §2, §3

human Nav1.8, sequence (Q9Y5Y9 whole entry): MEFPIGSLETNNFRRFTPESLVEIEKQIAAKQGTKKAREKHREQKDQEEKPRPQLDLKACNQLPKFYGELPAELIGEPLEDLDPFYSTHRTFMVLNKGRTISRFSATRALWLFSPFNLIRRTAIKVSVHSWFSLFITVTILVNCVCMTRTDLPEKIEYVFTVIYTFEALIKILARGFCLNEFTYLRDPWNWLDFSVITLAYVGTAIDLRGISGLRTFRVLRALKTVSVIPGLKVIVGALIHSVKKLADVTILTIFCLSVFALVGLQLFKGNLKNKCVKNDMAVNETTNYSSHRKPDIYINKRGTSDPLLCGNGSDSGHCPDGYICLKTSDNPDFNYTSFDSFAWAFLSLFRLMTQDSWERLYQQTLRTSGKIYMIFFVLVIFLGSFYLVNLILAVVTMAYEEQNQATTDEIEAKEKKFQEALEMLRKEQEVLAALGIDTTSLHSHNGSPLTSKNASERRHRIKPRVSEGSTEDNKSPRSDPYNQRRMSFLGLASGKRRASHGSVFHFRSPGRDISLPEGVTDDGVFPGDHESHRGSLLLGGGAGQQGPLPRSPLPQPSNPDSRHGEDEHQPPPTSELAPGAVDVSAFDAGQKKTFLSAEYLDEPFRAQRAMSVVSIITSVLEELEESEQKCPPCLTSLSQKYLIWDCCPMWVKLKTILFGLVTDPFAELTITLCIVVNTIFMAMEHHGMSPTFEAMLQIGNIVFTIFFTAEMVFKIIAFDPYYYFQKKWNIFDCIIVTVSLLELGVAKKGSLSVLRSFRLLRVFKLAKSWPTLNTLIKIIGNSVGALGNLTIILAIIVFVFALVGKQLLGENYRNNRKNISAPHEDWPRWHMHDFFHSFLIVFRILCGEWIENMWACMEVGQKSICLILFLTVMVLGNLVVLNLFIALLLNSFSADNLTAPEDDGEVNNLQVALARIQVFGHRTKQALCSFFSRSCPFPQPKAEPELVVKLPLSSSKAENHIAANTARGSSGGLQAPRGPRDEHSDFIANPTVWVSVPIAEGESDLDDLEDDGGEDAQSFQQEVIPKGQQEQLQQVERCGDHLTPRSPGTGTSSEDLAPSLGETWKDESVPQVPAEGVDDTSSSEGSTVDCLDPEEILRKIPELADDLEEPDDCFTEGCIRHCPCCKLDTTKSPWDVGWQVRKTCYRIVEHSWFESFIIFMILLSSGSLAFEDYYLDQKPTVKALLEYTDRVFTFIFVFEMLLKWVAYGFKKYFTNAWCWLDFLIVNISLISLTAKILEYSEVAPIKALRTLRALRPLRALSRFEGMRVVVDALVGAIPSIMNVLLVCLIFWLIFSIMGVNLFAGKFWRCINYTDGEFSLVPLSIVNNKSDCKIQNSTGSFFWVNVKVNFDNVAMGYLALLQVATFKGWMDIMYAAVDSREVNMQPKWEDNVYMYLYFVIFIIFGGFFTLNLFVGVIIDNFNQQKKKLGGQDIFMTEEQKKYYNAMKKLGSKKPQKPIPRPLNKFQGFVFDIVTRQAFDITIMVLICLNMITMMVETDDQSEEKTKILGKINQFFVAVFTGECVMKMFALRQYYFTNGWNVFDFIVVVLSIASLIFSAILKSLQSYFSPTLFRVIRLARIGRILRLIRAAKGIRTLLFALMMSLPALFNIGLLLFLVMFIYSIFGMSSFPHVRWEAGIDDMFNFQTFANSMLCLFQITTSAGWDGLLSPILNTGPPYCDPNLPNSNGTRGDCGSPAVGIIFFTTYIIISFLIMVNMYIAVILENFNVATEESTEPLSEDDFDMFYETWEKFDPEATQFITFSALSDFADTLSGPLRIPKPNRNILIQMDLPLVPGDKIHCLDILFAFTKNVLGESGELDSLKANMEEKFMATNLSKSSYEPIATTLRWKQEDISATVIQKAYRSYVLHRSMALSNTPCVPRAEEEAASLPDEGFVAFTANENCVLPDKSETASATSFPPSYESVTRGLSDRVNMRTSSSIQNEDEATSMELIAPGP

SMILES | IC50 (human Nav1.8) | HLM (% remaining @ 30 minutes) [1] | RLM (% remaining @ 30 minutes) [2]
O=C(Nc1cc[nH]c(=O)c1)c1cc(OC(F)(F)F)ccc1Oc1ccc(F)cc1Cl [Compound 37, 2-(2-chloro-4-fluorophenoxy)-N-(2-oxo-1,2-dihydropyridin-4-yl)-5-(trifluoromethoxy)benzamide] | 51 nM | 100% | 97%
Cc1cc(F)ccc1Oc1cc(C(F)(F)F)ccc1C(=O)Nc1cc[nH]c(=O)c1 [Compound 10, 2-(4-fluoro-2-methylphenoxy)-N-(2-oxo-1,2-dihydropyridin-4-yl)-4-(trifluoromethyl)benzamide] | – | 93% | 82%
O=C(Nc1cc[nH]c(=O)c1)c1ccc(C(F)(F)F)cc1Oc1ccc(OC(F)F)cc1 [Compound 82, 2-(4-(difluoromethoxy)phenoxy)-N-(2-oxo-1,2-dihydropyridin-4-yl)-4-(trifluoromethyl)benzamide] | 36 nM | 101% | 98%
CC(C)(C)c1ccc(C(=O)Nc2ccc(=O)[nH]c2)c(Oc2ccc(C(F)(F)F)nc2)c1 [Compound 142, 4-(tert-butyl)-N-(6-oxo-1,6-dihydropyridin-3-yl)-2-((6-(trifluoromethyl)pyridin-3-yl)oxy)benzamide] | 653 nM | 38% | 50%
O=C(Nc1cc[nH]c(=O)c1)c1cc(Cl)ccc1Oc1ccc(F)cc1Cl [Compound 66, 5-chloro-2-(2-chloro-4-fluorophenoxy)-N-(2-oxo-1,2-dihydropyridin-4-yl)benzamide] | 37 nM | 100% | 106%
O=C(Nc1cc[nH]c(=O)c1)c1cc(C(F)(F)F)ccc1Oc1ccc(F)c(F)c1F [Compound 90, N-(2-oxo-1,2-dihydropyridin-4-yl)-5-(trifluoromethyl)-2-(2,3,4-trifluorophenoxy)benzamide] | 26 nM | 101% | 104%
O=C(Nc1cc[nH]c(=O)c1)c1cc(C(F)(F)F)ccc1Oc1ccc(Cl)cc1F [Compound 51, 2-(4-chloro-2-fluorophenoxy)-N-(2-oxo-1,2-dihydropyridin-4-yl)-5-(trifluoromethyl)benzamide] | 87 nM | – | –
O=C(Nc1cc[nH]c(=O)c1)c1c(Oc2ccc(F)cc2)cc(C(F)(F)F)cc1C(F)(F)F [Compound 155, 2-(4-fluorophenoxy)-N-(2-oxo-1,2-dihydropyridin-4-yl)-4,6-bis(trifluoromethyl)benzamide] | 11 nM | – | –
Cc1cc(NC(=O)c2cc(C(F)(F)F)ccc2Oc2ccc(F)cc2C)cc(=O)[nH]1 [Compound 61, 2-(4-fluoro-2-methylphenoxy)-N-(6-methyl-2-oxo-1,2-dihydropyridin-4-yl)-5-(trifluoromethyl)benzamide] | 113 nM | – | –
Cn1cc(NC(=O)c2ccc(C(C)(C)C)cc2Oc2ccc(C(F)(F)F)nc2)ccc1=O [Compound 149, 4-(tert-butyl)-N-(1-methyl-6-oxo-1,6-dihydropyridin-3-yl)-2-((6-(trifluoromethyl)pyridin-3-yl)oxy)benzamide] | 1650 nM | – | –
COc1ccc(Oc2ccc(C(F)(F)F)cc2C(=O)Nc2cc[nH]c(=O)c2)c(C)c1 [Compound 63, 2-(4-methoxy-2-methylphenoxy)-N-(2-oxo-1,2-dihydropyridin-4-yl)-5-(trifluoromethyl)benzamide] | 18 nM | – | –
COc1cc(F)ccc1Oc1cc(C(F)(F)F)cc(C(F)(F)F)c1C(=O)Nc1cc[nH]c(=O)c1 [Compound 154, 2-(4-fluoro-2-methoxyphenoxy)-N-(2-oxo-1,2-dihydropyridin-4-yl)-4,6-bis(trifluoromethyl)benzamide] | 5 nM | – | –
O=C(Nc1cc[nH]c(=O)c1)c1cc(Cl)ccc1Oc1ccc(F)cc1 [Compound 67, 5-chloro-2-(4-fluorophenoxy)-N-(2-oxo-1,2-dihydropyridin-4-yl)-benzamide] | 69 nM | – | –
CCCOc1ccc(Oc2ccc(C(F)(F)F)cc2C(=O)Nc2cc[nH]c(=O)c2)cc1 [Compound 53, N-(2-oxo-1,2-dihydropyridin-4-yl)-2-(4-propoxyphenoxy)-5-(trifluoromethyl)benzamide] | 47 nM | – | –
O=C(Nc1cc[nH]c(=O)c1)c1cc(C(F)(F)F)ccc1Oc1ccc(OC(F)F)cc1 [Compound 73, 2-(4-(difluoromethoxy)phenoxy)-N-(2-oxo-1,2-dihydropyridin-4-yl)-5-(trifluoromethyl)benzamide] | 35 nM | – | –
O=C(Nc1cc[nH]c(=O)c1)c1ccc(Cl)cc1Oc1ccc(F)cc1F [Compound 13, 4-chloro-2-(2,4-difluorophenoxy)-N-(2-oxo-1,2-dihydropyridin-4-yl)benzamide] | 106 nM | – | –
COc1ccc(Oc2ccc(Cl)cc2C(=O)Nc2cc[nH]c(=O)c2)cc1F [Compound 71, 5-chloro-2-(3-fluoro-4-methoxyphenoxy)-N-(2-oxo-1,2-dihydropyridin-4-yl)benzamide] | 92 nM | – | –
O=C(Nc1cc[nH]c(=O)c1)c1cc(C(F)(F)F)ccc1Oc1ccc(F)cc1F [Compound 24, 2-(2,4-difluorophenoxy)-N-(2-oxo-1,2-dihydropyridin-4-yl)-5-(trifluoromethyl)benzamide] | 58 nM | – | –

SMILES | IC50 (human Nav1.8) | HLM (% remaining @ 30 minutes) [1] | RLM (% remaining @ 30 minutes) [2]
COc1cc(C)ccc1Oc1ccc(C(F)(F)F)cc1C(=O)Nc1cc[nH]c(=O)c1 [Compound 47, 2-(2-methoxy-4-methylphenoxy)-N-(2-oxo-1,2-dihydropyridin-4-yl)-5-(trifluoromethyl)benzamide] | 135 nM | – | –
O=C(Nc1cc[nH]c(=O)c1)c1cc(OC(F)(F)F)ccc1OCCC(F)(F)F [Compound 138, N-(2-oxo-1,2-dihydropyridin-4-yl)-5-(trifluoromethoxy)-2-(3,3,3-trifluoropropoxy)benzamide] | 1450 nM | – | –
Cc1ncccc1Oc1ccc(OC(F)(F)F)cc1C(=O)Nc1cc[nH]c(=O)c1 [Compound 151, 2-((2-methylpyridin-3-yl)oxy)-N-(2-oxo-1,2-dihydropyridin-4-yl)-5-(trifluoromethoxy)benzamide] | 8400 nM | – | –
Cc1ccc(Oc2ccc(C(F)(F)F)cc2C(=O)Nc2cc[nH]c(=O)c2)c(F)c1F [Compound 92, 2-(2,3-difluoro-4-methylphenoxy)-N-(2-oxo-1,2-dihydropyridin-4-yl)-5-(trifluoromethyl)benzamide] | 135 nM | – | –
O=C(Nc1cc[nH]c(=O)c1)c1cc(C(F)(F)F)ccc1OCCC(F)(F)F [Compound 132, N-(2-oxo-1,2-dihydropyridin-4-yl)-5-(trifluoromethyl)-2-(3,3,3-trifluoropropoxy)benzamide] | 330 nM | – | –
CC(C)CCOc1cc(C(F)(F)F)ccc1C(=O)Nc1cc[nH]c(=O)c1 [Compound 116, 2-(isopentyloxy)-N-(2-oxo-1,2-dihydropyridin-4-yl)-4-(trifluoromethyl)benzamide] | 488 nM | – | –
O=C(Nc1cc[nH]c(=O)c1)c1ccc(C(F)(F)F)cc1Oc1ccccc1 [Compound 9, N-(2-oxo-1,2-dihydropyridin-4-yl)-2-phenoxy-4-(trifluoromethyl)benzamide] | 93 nM | – | –
O=C(Nc1cc[nH]c(=O)c1)c1ccc(C(F)(F)F)cc1OC1CCC1 [Compound 122, 2-cyclobutoxy-N-(2-oxo-1,2-dihydropyridin-4-yl)-4-(trifluoromethyl)benzamide] | 4200 nM | – | –
O=C(Nc1cc[nH]c(=O)c1)c1cc(OC(F)(F)F)ccc1Oc1ccc(F)cc1 [Compound 38, 2-(4-fluorophenoxy)-N-(2-oxo-1,2-dihydropyridin-4-yl)-5-(trifluoromethoxy)benzamide] | 69 nM | – | –
CCOc1ccc(Oc2ccc(F)cc2C(=O)Nc2cc[nH]c(=O)c2)cc1 [Compound 98, 2-(4-ethoxyphenoxy)-5-fluoro-N-(2-oxo-1,2-dihydropyridin-4-yl)benzamide] | 300 nM | – | –
COc1c(F)cccc1Oc1ccc(C(F)(F)F)cc1C(=O)Nc1cc[nH]c(=O)c1 [Compound 54, 2-(3-fluoro-2-methoxyphenoxy)-N-(2-oxo-1,2-dihydropyridin-4-yl)-5-(trifluoromethyl)benzamide] | 30 nM | – | –
O=C(Nc1cc[nH]c(=O)c1)c1cc(C(F)(F)F)ccc1OC1C[C@@H]2C[C@@H]2C1 (stereo partly shown) [Compound 135] | 1650 nM | – | –
COc1cc(F)ccc1Oc1cc(Cl)ccc1C(=O)Nc1cc[nH]c(=O)c1 [Compound 16, 4-chloro-2-(4-fluoro-2-methoxyphenoxy)-N-(2-oxo-1,2-dihydropyridin-4-yl)benzamide] | 14 nM | – | –
CC(C)COc1cc(C(F)(F)F)ccc1C(=O)Nc1cc[nH]c(=O)c1 [Compound 117, 2-isobutoxy-N-(2-oxo-1,2-dihydropyridin-4-yl)-4-(trifluoromethyl)benzamide] | 1140 nM | – | –
O=C(Nc1cc[nH]c(=O)c1)c1cc(C(F)(F)F)ccc1OCCCC(F)(F)F [Compound 133, N-(2-oxo-1,2-dihydropyridin-4-yl)-2-(4,4,4-trifluorobutoxy)-5-(trifluoromethyl)benzamide] | 5800 nM | – | –
O=C(Nc1cc[nH]c(=O)c1)c1ccccc1Oc1ccc(F)cc1 [Compound 1, 2-(4-fluorophenoxy)-N-(2-oxo-1,2-dihydropyridin-4-yl)benzamide] | 1090 nM | – | –
O=C(Nc1cc[nH]c(=O)c1)c1ccc(C(F)(F)F)cc1OCC1CC1(F)F (stereo not shown) [Compound 126, 2-((2,2-difluorocyclopropyl)methoxy)-N-(2-oxo-1,2-dihydropyridin-4-yl)-4-(trifluoromethyl)benzamide] | 1400 nM | – | –
